Measured values taken from patent US20140051815A1, “ORGANIC SULFONIC ACID COMPOUND, DOPANT HAVING SAME, AND CONDUCTIVE POLYMER COMPLEX HAVING THE DOPANT” (Ajou University Industry-Academic Cooperation Foundation, priority 2011, published 2014).

Assays:
[1] = Solubility in various solvents; assay type: physicochemical; design: key: +++: dissolved well; ++: almost dissolved, but not completely dissolved and somewhat precipitated; +: opaquely dispersed; −: not dissolved but precipitated
Method: Solubility properties of polyaniline ES in various organic solvents using the dopants of Examples were compared and checked in the same experimental conditions. […] After a basket mixing process, transmittances were measured and an average particle size was measured by using a particle size analyzer, and measurement results are as shown in Table 5.

[2] = Acidity / pH of doping solution, titration with 0.1 N KOH; assay type: physicochemical
From the text: In order to confirm a doping function of the dopants of Examples, pH of a doping solution was checked by using a 0.1 N KOH solution. […] Therefore, a function as a dopant could be confirmed.

Row | Solubility in BuO—EtOH [1] | Solubility in CHCl3 [1] | Solubility in H2O [1] | Solubility in MEK [1] | Solubility in MeOH [1] | Solubility in NMP [1] | Solubility in isopropyl alcohol [1] | Solubility in m-cresol [1] | Solubility in toluene [1] | Titration (Acidity) 0.1N KOH; converted into sulfonic acid [2] | SMILES
1 | +++ | − | +++ | + | +++ | +++ | ++ | ++ | − | 85% | O=S(=O)(O)CCCOc1ccc(O)cc1 [Dopant II]
2 | +++ | − | +++ | + | +++ | +++ | +++ | ++ | − |  | Cc1cc(OCCCS(=O)(=O)O)ccc1O [Dopant VI]

The remaining lines, values behind:

Row | SMILES | Solubility in BuO—EtOH [1] | Solubility in CHCl3 [1] | Solubility in H2O [1] | Solubility in MEK [1] | Solubility in MeOH [1] | Solubility in NMP [1] | Solubility in isopropyl alcohol [1] | Solubility in m-cresol [1] | Solubility in toluene [1] | Titration (Acidity) 0.1N KOH; converted into sulfonic acid [2]
3 | O=S(=O)(O)CCCOc1ccc(-c2ccccc2)cc1 [Dopant IV] | + | − | +++ | + | +++ | +++ | + | +++ | − | 
4 | Cc1cccc(OCCCS(=O)(=O)O)c1 [Dopant I] | ++ | − | +++ | + | +++ | ++ | +++ | ++ | − | 86%
5 | O=S(=O)(O)CCCOc1ccc(OCc2ccccc2)cc1 [Dopant V] | +++ | − | +++ | ++ | +++ | +++ | ++ | ++ | − | 
